The record followed here is ChEMBL document CHEMBL5465560, “Selectivity Literature for EUbOPEN Chemogenomic Library” (2024).

Assay [1] deals with Mitogen-activated protein kinase kinase kinase kinase 5 (Homo sapiens) (UniProt Q9Y4K4). The assay can be described thus: Selectivity interaction (KinomeScan (DiscoverX)) EUB0001049a MAP4K5. Particulars: at 1 µM.
Assay [2] has as its target Proto-oncogene tyrosine-protein kinase ROS (Homo sapiens) (UniProt P08922). The assay can be described thus: Selectivity interaction (KinomeScan (DiscoverX)) EUB0000655a ROS1. The note with it: at 10 µM.
Assay [3] addresses 3',5'-cyclic-AMP phosphodiesterase 4D (Homo sapiens) (UniProt Q08499). The assay can be described thus: Selectivity interaction (Panel of non-epigenetic targets (kinases, GPCRs, ion channels, and transporters, Eurofins) ) EUB0000271b PDE4D. Particulars: at 1 µM.
In assay [4] the target is Dual specificity tyrosine-phosphorylation-regulated kinase 1B (Homo sapiens, UniProt Q9Y463). The assay is described as follows: Selectivity interaction (KinomeScan (DiscoverX)) EUB0000045b DYRK1B.
Sequence of Dual specificity tyrosine-phosphorylation-regulated kinase 1B (Q9Y463 whole entry, looked up): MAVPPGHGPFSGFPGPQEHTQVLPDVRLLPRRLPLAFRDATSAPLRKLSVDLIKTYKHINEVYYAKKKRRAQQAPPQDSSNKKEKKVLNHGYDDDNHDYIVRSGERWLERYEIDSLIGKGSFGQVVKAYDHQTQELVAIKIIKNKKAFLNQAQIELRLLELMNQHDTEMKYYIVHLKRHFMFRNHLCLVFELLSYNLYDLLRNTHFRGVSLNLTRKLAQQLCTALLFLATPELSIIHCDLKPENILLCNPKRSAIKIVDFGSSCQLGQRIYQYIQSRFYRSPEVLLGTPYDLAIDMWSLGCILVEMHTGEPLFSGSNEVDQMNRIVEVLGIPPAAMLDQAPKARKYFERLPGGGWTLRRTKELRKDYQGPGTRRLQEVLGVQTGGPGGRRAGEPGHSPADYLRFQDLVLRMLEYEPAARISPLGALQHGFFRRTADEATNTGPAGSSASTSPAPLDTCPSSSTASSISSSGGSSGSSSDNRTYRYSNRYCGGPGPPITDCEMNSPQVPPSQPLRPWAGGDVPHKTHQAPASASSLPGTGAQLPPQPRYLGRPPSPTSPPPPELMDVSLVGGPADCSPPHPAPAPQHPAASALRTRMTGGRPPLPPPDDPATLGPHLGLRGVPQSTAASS
Assay [5] concerns the target T1, Beta-adrenergic receptor kinase 1 (Homo sapiens) (UniProt P25098).
T1 sequence (whole entry): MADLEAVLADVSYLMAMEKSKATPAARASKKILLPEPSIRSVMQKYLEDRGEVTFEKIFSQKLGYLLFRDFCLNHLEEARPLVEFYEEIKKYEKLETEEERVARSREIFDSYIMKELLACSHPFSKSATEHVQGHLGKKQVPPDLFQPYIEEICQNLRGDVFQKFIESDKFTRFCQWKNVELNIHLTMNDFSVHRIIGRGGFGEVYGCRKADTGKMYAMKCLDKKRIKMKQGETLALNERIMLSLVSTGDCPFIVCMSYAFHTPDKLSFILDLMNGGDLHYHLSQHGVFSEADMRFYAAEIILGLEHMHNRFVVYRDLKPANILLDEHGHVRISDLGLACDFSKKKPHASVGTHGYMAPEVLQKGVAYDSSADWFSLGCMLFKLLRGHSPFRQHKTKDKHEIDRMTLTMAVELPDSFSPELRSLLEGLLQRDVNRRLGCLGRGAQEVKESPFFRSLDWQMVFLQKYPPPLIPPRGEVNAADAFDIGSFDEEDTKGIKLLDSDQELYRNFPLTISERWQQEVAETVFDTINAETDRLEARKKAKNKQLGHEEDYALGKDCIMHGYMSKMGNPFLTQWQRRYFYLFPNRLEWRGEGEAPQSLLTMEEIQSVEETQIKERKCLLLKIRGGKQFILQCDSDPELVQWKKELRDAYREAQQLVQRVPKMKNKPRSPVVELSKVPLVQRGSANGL
The assay is described as follows: Selectivity interaction (SelectScreen profiling (Invitrogen)) EUB0000607a ADRBK1. Particulars: at 2 µM.

Assay [6] deals with Phosphatidylinositol 3-kinase catalytic subunit type 3 (Homo sapiens, UniProt Q8NEB9). The assay can be described thus: Selectivity interaction (ActivX KiNativ screen (kinase selectivity in THP-1 cell lysates)) EUB0000639a PIK3C3. The note with it: lysate, at 0.2 µM. The format is subcellular.
In assay [7] the target is T2, Serine/threonine-protein kinase DCLK2 (Homo sapiens) (UniProt Q8N568).
T2 sequence (whole entry): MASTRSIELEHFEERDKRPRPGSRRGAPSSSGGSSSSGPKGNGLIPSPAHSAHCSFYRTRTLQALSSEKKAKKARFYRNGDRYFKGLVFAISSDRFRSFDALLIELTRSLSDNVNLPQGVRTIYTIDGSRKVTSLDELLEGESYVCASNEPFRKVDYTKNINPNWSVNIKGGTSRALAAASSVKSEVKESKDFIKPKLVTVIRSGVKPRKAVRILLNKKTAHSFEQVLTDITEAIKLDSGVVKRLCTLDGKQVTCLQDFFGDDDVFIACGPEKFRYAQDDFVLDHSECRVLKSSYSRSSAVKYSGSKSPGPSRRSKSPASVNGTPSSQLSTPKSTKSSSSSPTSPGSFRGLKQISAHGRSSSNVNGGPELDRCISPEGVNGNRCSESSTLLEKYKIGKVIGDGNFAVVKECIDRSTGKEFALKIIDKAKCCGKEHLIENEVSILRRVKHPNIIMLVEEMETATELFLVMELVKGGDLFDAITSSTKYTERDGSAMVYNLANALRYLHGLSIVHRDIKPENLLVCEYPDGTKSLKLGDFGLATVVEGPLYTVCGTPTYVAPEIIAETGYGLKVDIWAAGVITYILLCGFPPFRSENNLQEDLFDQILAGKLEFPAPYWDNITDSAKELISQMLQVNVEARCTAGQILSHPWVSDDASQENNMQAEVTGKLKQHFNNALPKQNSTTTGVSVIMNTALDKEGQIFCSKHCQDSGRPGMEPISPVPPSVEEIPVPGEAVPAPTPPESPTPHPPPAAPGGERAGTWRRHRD
The assay can be described thus: Selectivity interaction (KinomeScan (DiscoverX)) EUB0000229b DCLK2. The note with it: at 10 µM.

Assay [8] addresses T3, Mitogen-activated protein kinase kinase kinase 2 (Homo sapiens) (UniProt Q9Y2U5).
T3 sequence (whole entry): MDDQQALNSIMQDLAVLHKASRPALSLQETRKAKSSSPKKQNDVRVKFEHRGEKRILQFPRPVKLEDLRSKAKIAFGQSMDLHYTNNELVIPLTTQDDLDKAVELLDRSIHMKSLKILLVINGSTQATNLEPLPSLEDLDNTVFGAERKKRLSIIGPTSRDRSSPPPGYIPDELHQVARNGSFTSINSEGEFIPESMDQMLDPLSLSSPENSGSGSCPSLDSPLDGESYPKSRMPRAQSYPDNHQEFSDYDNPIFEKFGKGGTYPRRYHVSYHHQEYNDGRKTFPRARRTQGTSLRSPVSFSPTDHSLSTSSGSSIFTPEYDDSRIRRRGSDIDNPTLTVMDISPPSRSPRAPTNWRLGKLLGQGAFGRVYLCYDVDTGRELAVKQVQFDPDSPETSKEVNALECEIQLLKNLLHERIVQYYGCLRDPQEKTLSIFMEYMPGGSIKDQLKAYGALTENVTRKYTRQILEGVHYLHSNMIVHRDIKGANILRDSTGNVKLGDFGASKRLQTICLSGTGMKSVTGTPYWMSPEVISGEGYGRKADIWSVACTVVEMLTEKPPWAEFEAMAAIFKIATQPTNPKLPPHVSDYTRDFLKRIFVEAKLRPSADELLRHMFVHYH
The assay is described as follows: Selectivity interaction (KinomeScan (DiscoverX)) EUB0000595a MAP3K2. Particulars: at 10 µM.

Sequence of Proto-oncogene tyrosine-protein kinase ROS (Homo sapiens) (P08922 whole entry): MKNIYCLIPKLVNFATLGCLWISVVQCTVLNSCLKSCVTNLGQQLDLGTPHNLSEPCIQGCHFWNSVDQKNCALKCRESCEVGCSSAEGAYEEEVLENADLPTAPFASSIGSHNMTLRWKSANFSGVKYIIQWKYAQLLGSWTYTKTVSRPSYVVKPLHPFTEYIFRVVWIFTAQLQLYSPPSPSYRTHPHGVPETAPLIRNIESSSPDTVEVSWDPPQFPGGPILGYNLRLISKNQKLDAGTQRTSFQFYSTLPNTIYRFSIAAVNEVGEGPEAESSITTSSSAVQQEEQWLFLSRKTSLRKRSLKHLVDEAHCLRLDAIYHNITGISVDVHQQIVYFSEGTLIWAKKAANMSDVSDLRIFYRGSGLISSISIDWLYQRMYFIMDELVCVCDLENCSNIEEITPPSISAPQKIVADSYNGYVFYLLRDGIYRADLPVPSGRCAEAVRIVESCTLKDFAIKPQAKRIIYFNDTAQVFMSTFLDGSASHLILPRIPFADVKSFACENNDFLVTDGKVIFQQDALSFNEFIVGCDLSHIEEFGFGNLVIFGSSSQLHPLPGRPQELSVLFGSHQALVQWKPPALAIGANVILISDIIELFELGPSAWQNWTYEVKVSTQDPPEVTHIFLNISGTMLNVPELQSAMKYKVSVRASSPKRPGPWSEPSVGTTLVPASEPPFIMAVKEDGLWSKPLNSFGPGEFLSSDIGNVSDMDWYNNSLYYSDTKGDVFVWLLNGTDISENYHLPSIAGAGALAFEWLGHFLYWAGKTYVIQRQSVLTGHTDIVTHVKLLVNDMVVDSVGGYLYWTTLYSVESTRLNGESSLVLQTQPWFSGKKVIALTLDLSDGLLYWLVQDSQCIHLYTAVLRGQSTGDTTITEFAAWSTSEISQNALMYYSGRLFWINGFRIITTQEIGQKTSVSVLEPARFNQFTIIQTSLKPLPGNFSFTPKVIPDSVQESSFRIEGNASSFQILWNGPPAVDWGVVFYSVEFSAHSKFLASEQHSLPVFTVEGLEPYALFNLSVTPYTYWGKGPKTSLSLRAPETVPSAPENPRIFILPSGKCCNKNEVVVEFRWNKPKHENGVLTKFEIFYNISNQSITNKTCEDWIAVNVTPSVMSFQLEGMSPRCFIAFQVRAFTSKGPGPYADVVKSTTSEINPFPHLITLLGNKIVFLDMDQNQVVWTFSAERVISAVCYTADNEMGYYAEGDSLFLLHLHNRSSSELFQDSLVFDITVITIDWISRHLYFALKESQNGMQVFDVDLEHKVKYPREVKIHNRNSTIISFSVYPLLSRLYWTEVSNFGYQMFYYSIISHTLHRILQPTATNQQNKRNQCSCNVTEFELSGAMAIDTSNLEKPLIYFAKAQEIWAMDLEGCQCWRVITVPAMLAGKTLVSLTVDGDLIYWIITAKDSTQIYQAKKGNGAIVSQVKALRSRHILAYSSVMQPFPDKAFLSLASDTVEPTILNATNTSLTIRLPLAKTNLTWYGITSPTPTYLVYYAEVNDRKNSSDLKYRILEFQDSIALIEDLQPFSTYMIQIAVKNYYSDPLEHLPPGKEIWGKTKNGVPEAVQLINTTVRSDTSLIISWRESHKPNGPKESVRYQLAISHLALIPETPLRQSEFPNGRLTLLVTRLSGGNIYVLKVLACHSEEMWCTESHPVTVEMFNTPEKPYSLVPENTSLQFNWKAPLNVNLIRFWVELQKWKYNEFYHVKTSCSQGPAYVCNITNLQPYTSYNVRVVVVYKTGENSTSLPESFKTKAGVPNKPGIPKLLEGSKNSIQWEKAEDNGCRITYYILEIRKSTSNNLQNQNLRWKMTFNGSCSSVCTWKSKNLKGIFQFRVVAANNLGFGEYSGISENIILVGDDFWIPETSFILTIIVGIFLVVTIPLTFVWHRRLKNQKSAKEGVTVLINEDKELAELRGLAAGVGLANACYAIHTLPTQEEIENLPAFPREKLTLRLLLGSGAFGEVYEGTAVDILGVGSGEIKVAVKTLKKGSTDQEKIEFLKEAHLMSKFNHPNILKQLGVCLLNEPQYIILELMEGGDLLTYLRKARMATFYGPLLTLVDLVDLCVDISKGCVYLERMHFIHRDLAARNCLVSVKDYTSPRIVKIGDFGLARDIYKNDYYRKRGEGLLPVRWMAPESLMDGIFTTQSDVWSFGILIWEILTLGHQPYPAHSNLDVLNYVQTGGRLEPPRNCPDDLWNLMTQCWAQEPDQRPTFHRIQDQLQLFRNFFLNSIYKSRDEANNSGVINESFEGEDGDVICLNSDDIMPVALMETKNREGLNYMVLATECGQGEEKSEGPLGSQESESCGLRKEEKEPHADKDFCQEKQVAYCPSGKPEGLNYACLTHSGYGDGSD
Sequence of Mitogen-activated protein kinase kinase kinase kinase 5 (Homo sapiens) (Q9Y4K4 whole entry, looked up): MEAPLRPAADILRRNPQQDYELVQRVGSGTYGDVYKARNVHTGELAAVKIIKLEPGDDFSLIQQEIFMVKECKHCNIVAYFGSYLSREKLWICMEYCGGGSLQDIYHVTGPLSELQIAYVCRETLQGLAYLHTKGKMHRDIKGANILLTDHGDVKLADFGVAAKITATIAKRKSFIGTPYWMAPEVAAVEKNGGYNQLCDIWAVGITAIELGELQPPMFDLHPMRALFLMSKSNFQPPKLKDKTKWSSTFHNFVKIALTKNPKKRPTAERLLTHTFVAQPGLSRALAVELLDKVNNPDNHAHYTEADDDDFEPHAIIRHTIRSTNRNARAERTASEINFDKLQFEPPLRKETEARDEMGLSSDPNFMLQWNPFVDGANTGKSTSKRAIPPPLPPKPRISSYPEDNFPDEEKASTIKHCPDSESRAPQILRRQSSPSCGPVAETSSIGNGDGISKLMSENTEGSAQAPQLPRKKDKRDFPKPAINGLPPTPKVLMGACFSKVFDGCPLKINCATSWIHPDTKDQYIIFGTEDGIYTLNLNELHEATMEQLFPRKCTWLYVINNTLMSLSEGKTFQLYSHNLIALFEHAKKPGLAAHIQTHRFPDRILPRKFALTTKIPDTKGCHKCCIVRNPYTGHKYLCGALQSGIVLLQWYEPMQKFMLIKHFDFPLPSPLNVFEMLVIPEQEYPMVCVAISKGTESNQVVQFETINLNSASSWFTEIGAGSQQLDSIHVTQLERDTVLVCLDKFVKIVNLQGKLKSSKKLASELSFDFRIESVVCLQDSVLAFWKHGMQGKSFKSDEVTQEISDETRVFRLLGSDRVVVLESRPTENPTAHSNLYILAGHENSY
Sequence of 3',5'-cyclic-AMP phosphodiesterase 4D (Homo sapiens) (Q08499 whole entry): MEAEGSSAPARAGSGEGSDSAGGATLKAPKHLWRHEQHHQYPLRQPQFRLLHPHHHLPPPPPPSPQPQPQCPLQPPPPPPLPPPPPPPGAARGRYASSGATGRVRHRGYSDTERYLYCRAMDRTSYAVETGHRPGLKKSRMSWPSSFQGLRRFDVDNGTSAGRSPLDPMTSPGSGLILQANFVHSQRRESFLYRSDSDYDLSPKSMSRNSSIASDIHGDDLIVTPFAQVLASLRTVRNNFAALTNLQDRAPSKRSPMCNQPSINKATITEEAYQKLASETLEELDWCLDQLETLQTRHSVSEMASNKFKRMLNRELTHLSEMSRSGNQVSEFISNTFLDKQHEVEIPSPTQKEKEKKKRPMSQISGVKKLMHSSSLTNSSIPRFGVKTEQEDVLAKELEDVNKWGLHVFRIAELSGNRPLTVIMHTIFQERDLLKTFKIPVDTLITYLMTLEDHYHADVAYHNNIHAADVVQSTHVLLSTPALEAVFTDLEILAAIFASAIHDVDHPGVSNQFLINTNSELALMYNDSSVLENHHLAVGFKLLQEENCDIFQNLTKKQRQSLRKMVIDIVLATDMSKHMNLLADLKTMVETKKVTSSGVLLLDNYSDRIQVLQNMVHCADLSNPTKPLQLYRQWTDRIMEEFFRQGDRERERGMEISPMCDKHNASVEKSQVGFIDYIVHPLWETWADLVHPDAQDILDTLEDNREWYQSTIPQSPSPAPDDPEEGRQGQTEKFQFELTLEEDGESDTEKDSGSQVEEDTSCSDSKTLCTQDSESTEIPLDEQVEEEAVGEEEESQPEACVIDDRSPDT

Compound `COc1cc(Nc2nc(C)cc(-c3cnn4nc(OC)ccc34)n2)cc(C(F)(F)F)c1` showed a % of control in assay [1] of 94%. The compound `CN(C)CCOc1ccc(-c2nc(-c3ccncc3)c(-c3ccc4c(c3)CC/C4=N\O)[nH]2)cc1` had a % of control in assay [2] of 88%. Consider `Cc1cc(C)cc([C@@H]2c3cc(C)ccc3NC(=O)CN2C(=O)c2ccc(Br)s2)c1`, for which, in assay [3], the % of inhibition is -12%. Turning to `C=CC(=O)Nc1cc(-n2c(=O)ccc3cnc4ccc(-c5ccc(NS(C)(=O)=O)cc5)cc4c32)ccc1C`, the % of control in assay [4] (at 1 µM) was 100%; in assay [4] (at 10 µM) it was 81%.

For `CNC(=O)Nc1ccc(-c2nc(N3CC4CCC(C3)O4)c3cnn(C4CCC5(CC4)OCCO5)c3n2)cc1`, the % of inhibition in assay [5] was -1%. Take `CC[C@@H]1[C@H](F)C(=O)N[C@@H]1COc1nccc2cc(C(N)=O)c(OC)cc12` [ZIMLOVISERTIB]: in assay [6], the % of inhibition was -20.4%. As to `COc1cc(N(C)c2ccnc3ccc(C(F)(F)F)cc23)cc(OC)c1OC`, the % binding in assay [7] came to 100%. In assay [8], `COCC(=O)NC/C=C/c1ccc2ncnc(Nc3ccc(Oc4ccc(C)nc4)c(C)c3)c2c1` [CP-724714] had a % of control of 100%.
